From US20040253656A1, “Method for measuring inositol triphosphate” (priority 2003, published 2004)

Assays:
PLCδ1/PH domain = target: T1, PLCδ1/PH domain (Homo sapiens, UniProt P51178); details: Lemmon & Ferguson (2001), read-out: affinity for IP3; cited from earlier work
T1 sequence (P51178 21-130 limits assumed): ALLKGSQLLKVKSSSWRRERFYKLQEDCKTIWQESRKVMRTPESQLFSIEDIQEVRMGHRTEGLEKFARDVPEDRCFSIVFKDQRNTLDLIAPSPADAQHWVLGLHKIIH

CHOM1 cells = assay: Cellular assay: IP3 levels in CHOM1 cells after carbachol, measured by scintillation proximity assay; type: cell-based; details: 20 mM LiCl, Carbachol 0.01 mM to 100 mM, 1 minute, FIG. 3
Description: Standard curves were generated, by displacing labelled IP3, using a range of known concentrations of unlabelled IP3. Reactions were conducted in 96 well Corning NBS microplates in a total volume of […]. The assays were carried out using 10 mMTris/[…] pH 7.0 containing 400 ng of the biotinylated GST-tagged PLC, protein, 10 nCi [^3H] IP3 (spec activity 23.0 Ci/mmol, Amersham), and 1 mg of streptavidin coated PVT beads. Plates were incubated on ice for 2 hours and the plates then read using a Microbeta microplate scintillation counter. Standard curves were also run in the presence of dodecyl trimethyl ammonium bromide (DTAB; lysis reagent 1) and alpha-cyclodextrin (lysis reagent 2) at final concentrations of 0.3% lysis solution 1 and 2% lysis reagent 2 (FIG. 2).
Cells (CHOM1; 2×10^5) were seeded onto a 24 well tissue culture plate and grown overnight at 37° C., 95/5% (air/CO2). Following overnight incubation, media were aspirated and the cells were washed 1× with PBS (phosphate buffered saline). Fresh media were added containing 20 mM LiCl (final concentration of lithium chloride) and the cells were incubated for 30 minutes at 37° C. in a humidified atmosphere (95/5%, air/CO2). […] The plate was incubated on ice for approximately 16 hours and the plate counted using a Microbeta microplate scintillation counter at 1 minute/well.

Compound	Kd (PLCδ1/PH domain) [nM]	effect on cellular levels of IP3 (CHOM1 cells)
O=P(O)(O)O[C@@H]1[C@H](O)[C@H](O)[C@@H](OP(=O)(O)O)[C@H](OP(=O)(O)O)[C@H]1O [IP3, Inositol 1,4,5-trisphosphate]	200	
C[N+](C)(C)CCOC(N)=O [carbachol, Carbachol]		stimulatory effect
